# Laboratory results from patent US20040224984A1, “Methods of treating inflammations and infections with pyridinium salts” (priority 2003, published 2004).
# Columns and labels:
# [1] = system: roundworms, threadworms, and whipworms; settings: reported; U.S. Pat. No. 3,075,975 and 3,085,935; cited from earlier work
# Rodent [2] = test: 4 Hour Carrageenan Pleuritis (rodent inflammation model); format: in vivo; settings: Prednisolone 0.02 mg/kg
# Rodent [3] = test: 4 Hour Allergic Pleuritis (rodent inflammation model); format: in vivo; settings: Prednisolone 0.004 mg/kg
# Rodent [4] = test: 4 Hour Allergic Synovitis (rodent inflammation model); format: in vivo; settings: Prednisolone 0.05 mg/kg
# Candida albicans = test: Vaginal candidiasis in female Charles River mice; format: in vivo; settings: mice infected vaginally, 0.025 mL daily for 4 days from 6 hours post-infection, formula I 0.5% (w/v), chlortrimazole 1% (w/v)
# Protocol: Mice, infected vaginally with Candida albicans, were treated with 0.025 mL of the above treatments, commencing 6 hours post-infection, daily for 4 days.
structure (smiles),measurement,setting,value
CC[n+]1c(/C=C/c2ccc(N3CCCC3)cc2)cccc1/C=C/c1ccc(N2CCCC2)cc1.[I-] [Stilbazium iodide],Anthelmintic efficacy,[1],"effective against roundworms, threadworms, and whipworms"
C[C@]12C=CC(=O)C=C1CC[C@@H]1[C@@H]2[C@@H](O)C[C@@]2(C)[C@H]1CC[C@]2(O)C(=O)CO [Prednisolone],% Inhibition Edema,Rodent [2],31%
same,% Inhibition Neutrophils,Rodent [2],21%
same,% Inhibition Edema,Rodent [3],33%
same,% Inhibition Neutrophils,Rodent [3],25%
same,% Inhibition Edema,Rodent [4],36%
same,% Inhibition Neutrophils,Rodent [4],37%
Clc1ccccc1C(c1ccccc1)(c1ccccc1)n1ccnc1 [Chlortrimazole],Cleared,Candida albicans; mice cleared/treated,7/10
same,Improved,Candida albicans; mice improved/treated,2/10
